Laboratory results from patent publication US20260216238A1, “TETRATHIOMOLYBDIC ACID FOR USE IN TREATING COPPER METABOLISM-ASSOCIATED DISEASES OR DISORDERS (WILSON DISEASE)” (Alexion Pharmaceuticals, Inc., priority 2023, published 2026).

System: patients with Wilson disease (WD)
Test: UWDRS Part III total score, functional subscale and individual items (neurological examination)
Assay type: in vivo, human
Conditions: for UWDRS Part III Functional Subscale (0-10) change from baseline, Mean (SD) / UWDRS Part III (0-175) change from baseline, Mean (SD): pooled Studies 301 and 201
Description: The UWDRS scoring system was developed specifically for the motor and movement disorders associated with chronic copper neurotoxicity in WD. Some individual items/subscales of the UWDRS Part III (arising from a chair, gait, handwriting, and speech) in addition to the UWDRS Parts I, II, and III overall, were assessed to further define the range of burdensome signs and symptoms of WD, so as to further understand the assessment of treatment effects on patients with WD. The UWDRS scores for consciousness (Part I) and abnormal neurologic examination findings (Part III) will be determined by a trained neurologist rater who is blinded to study treatment randomization. These scores were used to provide a rigorous dataset for evaluating changes from baseline.
Unified Wilson Disease Rating Scale (Parts I, II, and III): The UWDRS is a clinical rating scale designed to evaluate the neurological manifestations of WD that generally can be divided into 3 movement disorder syndromes: dystonic, ataxic, and Parkinsonian syndrome. The UWDRS comprises 3 parts: UWDRS Part I (level of consciousness, item 1), UWDRS Part II (a patient-reported review of daily activity items [disability], items 2 to 11), and UWDRS Part III (a detailed neurological examination, items 12 to 34).
The UWDRS Part I and Part III were assessed by a neurologist who is blinded to the treatment randomization, while UWDRS Part II may be reported to a non-blinded member of the study team by the patient, family member, or caregiver. The UWDRS has not been formally evaluated in adolescents. However, the components of Part I (level of consciousness), Part II (patient or caregiver-reported disability) and Part III (neurologic examination findings) were not fundamentally different between adults and adolescents. Patients aged 12 years and older were expected to be able to comply with UWDRS assessments.
Pooled results from all such participants will be integrated together into one timeline to allow analyses of changes in UWDRS, long-term copper control, and long-term safety laboratory data.
Endpoints (directly measured non-ceruloplasmin-bound copper [dNCC], UWDRS III (rater blinded) total and individual item scores, Clinical Global Impression-Improvement [CGI-I]) were evaluated at baseline (BL) and Week 48 (W48). Normalization (score decrease to 0), improvement (≥1 point decrease), stability (no change), or worsening (≥1 point increase) of total and individual UWDRS III item scores were evaluated at W48.

[1] = Week 24, Cohort 1, Study 201, n=8
[2] = Week 24, Cohort 1, Study 301, TTM n=90, SoC n=47
[3] = Week 24, Cohort 1, Total (Studies 301, 201, 205), n=98
[4] = Week 24, Study 301 TTM long term set
[5] = Week 48, Cohort 1, Study 201, n=9
[6] = Week 48, Cohort 1, Study 205, n=27
[7] = Week 48, Cohort 1, Study 301, TTM n=91, SoC n=49
[8] = Week 48, Cohort 1, Total (Studies 301, 201, 205), n=127

bis-choline tetrathiomolybdate [TTM]
UWDRS Part III Functional Subscale (0-10) change from baseline, Mean (SD) (TTM exposure 144 weeks): −1.042 (1.7227) | UWDRS-III change from baseline, Mean (SD) (TTM exposure 168 weeks, N=18): −18.08 (19.127) | UWDRS Part III (0-175) change from baseline, Mean (SD) (TTM exposure 168 weeks): −18.08 (19.127) | UWDRS Part III Functional Subscale (0-10) change from baseline, Mean (SD) (TTM exposure 168 weeks): −1.841 (2.1818) | UWDRS-III change from baseline, Mean (SD) (TTM exposure 192 weeks, N=19): −12.65 (19.476) | UWDRS Part III (0-175) change from baseline, Mean (SD) (TTM exposure 192 weeks): −12.65 (19.476) | UWDRS Part III Functional Subscale (0-10) change from baseline, Mean (SD) (TTM exposure 192 weeks): −1.250 (2.1459) | UWDRS-III change from baseline, Mean (SD) (TTM exposure 216 weeks, N=14): −16.17 (19.323) | UWDRS Part III (0-175) change from baseline, Mean (SD) (TTM exposure 216 weeks): −16.17 (19.323) | UWDRS Part III Functional Subscale (0-10) change from baseline, Mean (SD) (TTM exposure 216 weeks): −1.519 (2.3987) | UWDRS-III change from baseline, Mean (SD) (TTM exposure 240 weeks, N=13): −11.48 (16.473) | UWDRS Part III (0-175) change from baseline, Mean (SD) (TTM exposure 240 weeks): −11.48 (16.473) | UWDRS Part III Functional Subscale (0-10) change from baseline, Mean (SD) (TTM exposure 240 weeks): −0.898 (1.3384) | UWDRS-III change from baseline, Mean (SD) (TTM exposure 264 weeks, N=13): −14.00 (16.513) | UWDRS Part III (0-175) change from baseline, Mean (SD) (TTM exposure 264 weeks): −14.00 (16.513) | UWDRS Part III Functional Subscale (0-10) change from baseline, Mean (SD) (TTM exposure 264 weeks): −0.995 (1.2369) | UWDRS Part III-gait (0-10), Difference at 48 weeks, LSM (TTM vs SoC, P 0.4325): −0.15 | UWDRS Part III-handwriting (0-4), Difference at 48 weeks, LSM (TTM vs SoC, P 0.5077): −0.1 | UWDRS Part III functional subscale (0-10), Difference at 48 weeks, LSM (TTM vs SoC, P 0.6191): −0.067 | UWDRS Part III-arising from chair (0-4), Difference at 48 weeks, LSM (TTM vs SoC, P 0.6869): 0.0 | UWDRS Part III-speech (0-4), Difference at 48 weeks, LSM (TTM vs SoC, P 0.7238): 0.0 | UWDRS Part III (0-175), Difference at 48 weeks, LSM (TTM vs SoC, P 0.9441): −0.09 | UWDRS III total, LSM difference (SE) TTM versus SoC (W0-W48, cohort 1 incomplete response or intolerant, p=0.7084): −0.53 (1.426) | UWDRS-III, Change from Baseline, Max [1]: 1.0 | UWDRS-III, Change from Baseline, Mean [1]: −13.82 | UWDRS-III, Change from Baseline, Median [1]: −13.50 | UWDRS-III, Change from Baseline, Min [1]: −35.0, | UWDRS-III, Change from Baseline, Q1 [1]: −19.80, | UWDRS-III, Change from Baseline, Q3 [1]: −5.00 | UWDRS-III, Change from Baseline, Max [2]: 13.0 | UWDRS-III, Change from Baseline, Mean [2]: −0.86 | UWDRS-III, Change from Baseline, Median [2]: 0.00 | UWDRS-III, Change from Baseline, Min [2]: −18.7, | UWDRS-III, Change from Baseline, Q1 [2]: −3.00, | UWDRS-III, Change from Baseline, Q3 [2]: 1.00 | UWDRS-III, Change from Baseline, Max [3]: 13.0 | UWDRS-III, Change from Baseline, Mean [3]: −1.92 | UWDRS-III, Change from Baseline, Median [3]: −1.00 | UWDRS-III, Change from Baseline, Min [3]: −35.0, | UWDRS-III, Change from Baseline, Q1 [3]: −4.00, | UWDRS-III, Change from Baseline, Q3 [3]: 1.00 | UWDRS-III, Change from Baseline, LSM Diff (TTM vs. SoC) (Week 24, Cohort 1, TTM Total vs SoC Study 301, P-value 0.3884): −1.00 | UWDRS-III, Change from Baseline, LSM (Week 24, Cohort 1, TTM Total, SoC Study 301): −1.72 | UWDRS Part III (0-175) change from baseline, LSM [4]: −1.32 | UWDRS Part III (0-175) change from baseline, Mean [4]: −0.74 | UWDRS Part III functional subscale (0-10) change from baseline, LSM [4]: −0.158 | UWDRS Part III functional subscale (0-10) change from baseline, Mean [4]: −0.139 | UWDRS Part III-arising from chair (0-4) change from baseline, LSM [4]: −0.1 | UWDRS Part III-arising from chair (0-4) change from baseline, Mean [4]: 0.0 | UWDRS Part III-gait (0-4) change from baseline, LSM [4]: −0.21 | UWDRS Part III-gait (0-4) change from baseline, Mean [4]: −0.17 | UWDRS Part III-handwriting (0-4) change from baseline, LSM [4]: 0.0 | UWDRS Part III-handwriting (0-4) change from baseline, Mean [4]: −0.1 | UWDRS Part III-speech (0-4) change from baseline, LSM [4]: −0.1 | UWDRS Part III-speech (0-4) change from baseline, Mean [4]: −0.1 | UWDRS-III, Change from Baseline, Max [5]: 2.0 | UWDRS-III, Change from Baseline, Mean [5]: −19.44 | UWDRS-III, Change from Baseline, Median [5]: −13.00 | UWDRS-III, Change from Baseline, Min [5]: −48.0, | UWDRS-III, Change from Baseline, Q1 [5]: −29.00, | UWDRS-III, Change from Baseline, Q3 [5]: −9.00 | UWDRS-III, Change from Baseline, Max [6]: 6.0 | UWDRS-III, Change from Baseline, Mean [6]: −2.81 | UWDRS-III, Change from Baseline, Median [6]: −2.00 | UWDRS-III, Change from Baseline, Min [6]: −17.0, | UWDRS-III, Change from Baseline, Q1 [6]: −6.00, | UWDRS-III, Change from Baseline, Q3 [6]: 0.00 | UWDRS-III, Change from Baseline, Max [7]: 31.0 | UWDRS-III, Change from Baseline, Mean [7]: −2.24 | UWDRS-III, Change from Baseline, Median [7]: −1.00 | UWDRS-III, Change from Baseline, Min [7]: −28.0, | UWDRS-III, Change from Baseline, Q1 [7]: −4.00, | UWDRS-III, Change from Baseline, Q3 [7]: 0.00 | UWDRS-III, Change from Baseline, Max [8]: 31.0 | UWDRS-III, Change from Baseline, Mean [8]: −3.58
